Entries after “also recorded” stand apart in the source; their conditions may differ.
Tests used:
[1] = Solubility of gabapentin in anhydrous extraction solvents; format: physicochemical
Description: Thus, the solution of gabapentin in cresol after extraction may be anhydrified, for example, by distillation so as to crystallize the undesired residual salts leaving the gabapentin itself in solution. Said solution of gabapentin in cresol obtained from the removal of the salts by filtration and/or by contro-extraction with water has a chloride content of a few tens of ppm.
The same technique cannot be applied to the corresponding solution in n-butanol of the prior art, since the solubility of gabapentin in the anhydrous solvent is very low; as a result the butanolic solution of gabapentin extraction from the Hofmann end solution, when subjected to anhydrification reaction, leads to the co-precipitation of gabapentin and of these same salts, thus, with no advantage from the point of view of product purity.

[2] = as stated for U.S. Pat. No. 6,518,456; cited from earlier work

SMILES: NCC1(CC(=O)O)CCCCC1 [gabapentin, 1-(aminomethyl)-cyclohexaneacetic acid]
- solubility ([1]; in anhydrous cresol): about 20%
- solubility ([1]; in anhydrous n-butanol): virtually zero; also recorded: very low
- isoelectric point (pH) [2]: 7.2 pH
